Calls of active or inactive are those of the source. The calls are words filed in the database; no cut-off is given here.
Legend:
[1] = Oral bioavailability in Sprague-Dawley rat at 2 mg/kg; assay type: ADME, organism-based; conditions: in vivo
Glucocorticoid receptor = target: T1, Glucocorticoid receptor (Homo sapiens, UniProt P04150)
T1 sequence (P04150 whole entry): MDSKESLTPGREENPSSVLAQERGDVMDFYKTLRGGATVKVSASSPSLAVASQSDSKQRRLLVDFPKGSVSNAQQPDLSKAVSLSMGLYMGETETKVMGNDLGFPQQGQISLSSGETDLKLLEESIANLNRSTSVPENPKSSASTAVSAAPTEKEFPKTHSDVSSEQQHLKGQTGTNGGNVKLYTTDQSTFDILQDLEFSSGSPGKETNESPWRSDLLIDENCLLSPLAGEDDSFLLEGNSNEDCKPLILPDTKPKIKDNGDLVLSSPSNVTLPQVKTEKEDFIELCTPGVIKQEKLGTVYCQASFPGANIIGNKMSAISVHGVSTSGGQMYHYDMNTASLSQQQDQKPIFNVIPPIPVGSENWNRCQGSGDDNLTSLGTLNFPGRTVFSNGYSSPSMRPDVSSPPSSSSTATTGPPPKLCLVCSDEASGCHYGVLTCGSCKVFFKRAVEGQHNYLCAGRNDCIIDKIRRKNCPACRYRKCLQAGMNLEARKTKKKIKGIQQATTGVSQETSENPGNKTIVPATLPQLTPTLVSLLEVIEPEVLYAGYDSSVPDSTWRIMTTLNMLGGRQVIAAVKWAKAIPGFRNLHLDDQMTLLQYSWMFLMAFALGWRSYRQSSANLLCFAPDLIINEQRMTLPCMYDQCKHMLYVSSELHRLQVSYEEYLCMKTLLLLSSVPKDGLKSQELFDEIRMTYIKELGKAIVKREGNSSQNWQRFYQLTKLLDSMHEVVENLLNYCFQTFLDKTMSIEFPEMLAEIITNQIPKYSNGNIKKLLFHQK

Androgen receptor = target: T2, Androgen receptor (Homo sapiens, UniProt P10275)
T2 sequence (P10275 whole entry): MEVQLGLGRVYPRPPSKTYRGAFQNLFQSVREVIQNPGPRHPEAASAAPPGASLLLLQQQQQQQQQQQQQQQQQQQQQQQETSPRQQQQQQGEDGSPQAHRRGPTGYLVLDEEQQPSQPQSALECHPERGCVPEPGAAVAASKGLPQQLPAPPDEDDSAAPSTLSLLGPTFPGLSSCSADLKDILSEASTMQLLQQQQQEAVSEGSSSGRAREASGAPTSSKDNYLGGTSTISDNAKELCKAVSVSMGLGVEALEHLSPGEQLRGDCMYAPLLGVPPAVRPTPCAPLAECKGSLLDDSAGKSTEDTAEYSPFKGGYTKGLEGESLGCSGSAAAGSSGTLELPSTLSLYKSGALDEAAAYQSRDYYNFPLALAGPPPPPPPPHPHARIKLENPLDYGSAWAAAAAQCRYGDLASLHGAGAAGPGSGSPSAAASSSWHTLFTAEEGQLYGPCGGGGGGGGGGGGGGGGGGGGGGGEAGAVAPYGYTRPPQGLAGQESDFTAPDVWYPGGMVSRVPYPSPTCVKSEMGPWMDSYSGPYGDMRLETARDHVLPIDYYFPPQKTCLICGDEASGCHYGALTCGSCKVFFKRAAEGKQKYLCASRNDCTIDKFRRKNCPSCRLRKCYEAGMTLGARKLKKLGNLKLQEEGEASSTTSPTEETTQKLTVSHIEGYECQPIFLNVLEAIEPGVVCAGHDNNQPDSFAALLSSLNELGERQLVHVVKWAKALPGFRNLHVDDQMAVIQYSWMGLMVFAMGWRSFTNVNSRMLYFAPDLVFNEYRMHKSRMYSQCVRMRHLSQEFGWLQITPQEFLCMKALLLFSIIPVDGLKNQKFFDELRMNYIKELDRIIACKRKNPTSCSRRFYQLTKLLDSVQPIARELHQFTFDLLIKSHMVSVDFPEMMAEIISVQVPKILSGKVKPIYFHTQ

[2] = Clearance in Sprague-Dawley rat at 2 mg/kg, iv; assay type: ADME, organism-based; design: dose 2 mg/kg, route intravenous; conditions: in vivo
[3] = Volume of distribution at steady state in Sprague-Dawley rat at 2 mg/kg, iv; assay type: ADME, organism-based; design: dose 2 mg/kg, route intravenous; conditions: in vivo, read-out: Vdss
[4] = target: T3, Mineralocorticoid receptor (Homo sapiens, UniProt P08235); assay type: functional, cell-based, Huh-7;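 further: antagonism at Gal4-fused mineralocorticoid receptor in human Huh7 cells, measured by luciferase reporter gene read-out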
T3 sequence (P08235 whole entry): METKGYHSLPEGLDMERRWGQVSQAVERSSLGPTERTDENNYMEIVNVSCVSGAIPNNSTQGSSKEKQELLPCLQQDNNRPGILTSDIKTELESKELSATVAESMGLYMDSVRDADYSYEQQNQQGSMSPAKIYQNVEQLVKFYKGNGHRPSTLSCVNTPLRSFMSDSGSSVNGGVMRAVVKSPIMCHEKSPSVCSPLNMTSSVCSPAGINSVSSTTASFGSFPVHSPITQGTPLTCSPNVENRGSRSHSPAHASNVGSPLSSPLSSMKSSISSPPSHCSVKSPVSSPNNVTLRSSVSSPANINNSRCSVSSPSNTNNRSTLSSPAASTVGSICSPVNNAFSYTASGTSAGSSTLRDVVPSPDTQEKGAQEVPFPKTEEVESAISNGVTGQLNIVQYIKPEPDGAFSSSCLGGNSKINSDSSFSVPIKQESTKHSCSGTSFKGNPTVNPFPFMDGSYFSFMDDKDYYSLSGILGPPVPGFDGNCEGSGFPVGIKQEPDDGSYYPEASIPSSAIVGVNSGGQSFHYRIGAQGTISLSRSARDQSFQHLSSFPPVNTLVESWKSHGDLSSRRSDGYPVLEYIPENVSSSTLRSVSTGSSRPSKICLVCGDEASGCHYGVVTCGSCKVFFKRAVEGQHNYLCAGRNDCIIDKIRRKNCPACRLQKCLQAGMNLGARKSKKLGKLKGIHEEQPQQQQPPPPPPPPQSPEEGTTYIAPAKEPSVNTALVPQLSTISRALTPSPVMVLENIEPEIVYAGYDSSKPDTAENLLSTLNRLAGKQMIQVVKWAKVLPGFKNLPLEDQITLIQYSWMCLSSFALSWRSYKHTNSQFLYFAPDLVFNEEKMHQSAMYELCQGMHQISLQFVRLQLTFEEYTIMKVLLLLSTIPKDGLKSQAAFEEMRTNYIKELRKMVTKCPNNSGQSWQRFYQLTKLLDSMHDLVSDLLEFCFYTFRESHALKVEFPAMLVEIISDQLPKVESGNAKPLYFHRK

[5] = Half life in Sprague-Dawley rat at 2 mg/kg, iv; assay type: ADME, organism-based; design: dose 2 mg/kg, route intravenous; conditions: in vivo
Progesterone receptor = target: T4, Progesterone receptor (Homo sapiens, UniProt P06401); assay: Antagonist activity at progesterone receptor; assay type: functional
T4 sequence (P06401 whole entry): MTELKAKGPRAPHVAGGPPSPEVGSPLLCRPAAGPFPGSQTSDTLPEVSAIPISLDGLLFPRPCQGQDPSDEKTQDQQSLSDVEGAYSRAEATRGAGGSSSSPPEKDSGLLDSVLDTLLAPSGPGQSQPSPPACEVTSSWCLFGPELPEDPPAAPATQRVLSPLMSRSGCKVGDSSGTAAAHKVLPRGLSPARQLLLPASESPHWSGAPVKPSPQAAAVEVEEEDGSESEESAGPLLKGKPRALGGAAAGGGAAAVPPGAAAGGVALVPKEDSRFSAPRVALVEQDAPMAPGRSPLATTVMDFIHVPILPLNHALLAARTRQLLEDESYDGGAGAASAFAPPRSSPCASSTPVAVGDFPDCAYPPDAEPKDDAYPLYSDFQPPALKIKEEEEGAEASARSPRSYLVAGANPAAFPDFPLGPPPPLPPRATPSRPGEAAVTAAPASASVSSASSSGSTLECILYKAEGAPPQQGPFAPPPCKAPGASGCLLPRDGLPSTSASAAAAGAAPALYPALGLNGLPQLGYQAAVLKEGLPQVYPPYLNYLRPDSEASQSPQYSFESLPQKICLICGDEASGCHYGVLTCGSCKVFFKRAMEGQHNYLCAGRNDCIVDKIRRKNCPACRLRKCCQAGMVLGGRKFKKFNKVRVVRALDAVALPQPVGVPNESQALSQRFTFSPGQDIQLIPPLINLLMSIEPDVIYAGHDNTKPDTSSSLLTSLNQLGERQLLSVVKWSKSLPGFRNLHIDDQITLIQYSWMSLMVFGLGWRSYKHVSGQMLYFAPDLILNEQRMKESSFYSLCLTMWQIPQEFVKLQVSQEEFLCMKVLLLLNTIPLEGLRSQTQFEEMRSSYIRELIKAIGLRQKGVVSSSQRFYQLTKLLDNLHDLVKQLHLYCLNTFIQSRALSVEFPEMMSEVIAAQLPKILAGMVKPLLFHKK

[6] = Volume of distribution at steady state in Sprague-Dawley rat at 1 mg/kg, iv; assay type: ADME, organism-based; design: dose 1 mg/kg, route intravenous; conditions: in vivo, read-out: Vdss
[7] = Oral bioavailability in Sprague-Dawley rat at 1 mg/kg; assay type: ADME, organism-based; conditions: in vivo
[8] = Clearance in Sprague-Dawley rat at 1 mg/kg, iv; assay type: ADME, organism-based; design: dose 1 mg/kg, route intravenous; conditions: in vivo
Estrogen receptor = target: T5, Estrogen receptor (Homo sapiens, UniProt P03372); assay: Antagonist activity at estrogen receptor; assay type: functional
T5 sequence (P03372 whole entry): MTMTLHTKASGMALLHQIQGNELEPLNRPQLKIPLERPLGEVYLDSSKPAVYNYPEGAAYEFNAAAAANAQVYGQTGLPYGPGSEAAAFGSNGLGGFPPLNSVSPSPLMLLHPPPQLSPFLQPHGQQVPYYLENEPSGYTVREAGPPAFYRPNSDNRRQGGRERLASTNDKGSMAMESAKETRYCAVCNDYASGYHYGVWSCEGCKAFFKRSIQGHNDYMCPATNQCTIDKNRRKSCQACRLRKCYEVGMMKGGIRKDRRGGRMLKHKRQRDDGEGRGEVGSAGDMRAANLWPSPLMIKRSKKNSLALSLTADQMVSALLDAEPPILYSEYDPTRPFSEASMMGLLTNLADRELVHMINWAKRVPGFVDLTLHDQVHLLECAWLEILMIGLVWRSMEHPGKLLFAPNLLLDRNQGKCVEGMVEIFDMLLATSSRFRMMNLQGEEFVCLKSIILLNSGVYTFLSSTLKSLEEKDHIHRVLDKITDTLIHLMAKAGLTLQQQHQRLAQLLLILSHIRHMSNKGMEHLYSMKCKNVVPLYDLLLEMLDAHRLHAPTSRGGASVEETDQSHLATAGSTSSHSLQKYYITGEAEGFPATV

[9] = Half life in Sprague-Dawley rat at 1 mg/kg, iv; assay type: ADME, organism-based; design: dose 1 mg/kg, route intravenous; conditions: in vivo
Rattus norvegicus [10] = assay: Antihypertensive activity in Dahl salt sensitive hypertensive rat assessed as reduction in systolic blood pressure at 40 to 100 mg/kg, po bid for 21 days (RVb = 10 to 50 mmHg); assay type: functional, Artery; conditions: dose mg/kg 40-100
Rattus norvegicus [11] = assay: Protection against high salt-induced kidney injury in Dahl salt sensitive hypertensive rat assessed as decrease in urinary albumin level at 40 to 100 mg/kg, po relative to eplerenone; assay type: functional; design: scale not given: the % may be the effect or the level left; conditions: dose mg/kg 40-100
Rattus norvegicus [12] = assay: Protection against high salt-induced kidney injury in Dahl salt sensitive hypertensive rat assessed as decrease in glomerulosclerosis at 10 mg/kg, po relative to eplerenone; assay type: functional, organism-based; design: dose 10 mg/kg
Rattus norvegicus [13] = assay: Effect on renal function in rat assessed as reduction in serum potassium level at 10 mg/kg, po; assay type: functional, organism-based; design: dose 10 mg/kg
Rattus norvegicus [14] = assay: Protection against high salt-induced kidney injury in Dahl salt sensitive hypertensive rat assessed as decrease in urinary albumin level at 10 mg/kg, po relative to eplerenone; assay type: functional; design: scale not given: the % may be the effect or the level left

| Compound | bioavailability [1] [%] | IC50 (Glucocorticoid receptor) [µM] | IC50 (Androgen receptor) [µM] | clearance [2] [mL/min/kg] | Vd [3] [L/kg] | IC50 [4] [µM] | half-life [5] [h] | IC50 (Progesterone receptor) [µM] | Vd [6] [L/kg] | bioavailability [7] [%] | clearance [8] [mL/min/kg] | IC50 (Estrogen receptor) [µM] | half-life [9] [h] | Activity (Rattus norvegicus [10]) [mmHg] | Activity (Rattus norvegicus [11]) [%] | Activity (Rattus norvegicus [12]) | Activity (Rattus norvegicus [13]) | Activity (Rattus norvegicus [14]) [%] |
| --- | --- | --- | --- | --- | --- | --- | --- | --- | --- | --- | --- | --- | --- | --- | --- | --- | --- | --- |
| N#Cc1ccc(N2N=C(c3ccc(C(=O)O)cc3)C[C@@H]2c2ccc(F)cc2)cc1Cl | 46 | > 10 | > 8.92 | 6.9 | 1.5 | 0.031 | 2.6 | 2.08 |  |  |  |  |  |  |  |  |  |  |
| N#Cc1ccc(N2N=C(c3ccc(C(=O)O)cc3)C[C@@H]2C2CCCC2)cc1Cl | 100 | > 10 | > 10 | 34 | 3.6 | 0.016 | 1.2 | > 4.31 |  |  |  |  |  |  |  |  |  |  |
| CCOc1cc(C2=NN(c3ccc(C#N)c(Cl)c3)[C@@H](C3CCCC3)C2)ccc1C(=O)O | 83 |  |  | 5.5 | 0.6 |  | 1.3 |  | 2.3 | 50 | 9.2 | > 4.96 | 2.5 |  |  |  |  |  |
| Cc1cc(N2N=C3c4ccc(C(=O)O)cc4CO[C@@H]3[C@@H]2C2CCCC2)ccc1C#N | 57 | > 10 | > 10 | 4.6 | 0.6 | 0.026 | 1.6 | 1.88 |  |  |  |  |  |  |  |  |  |  |
| N#Cc1ccc(N2N=C3c4ccc(C(=O)O)cc4CC[C@@H]3[C@@H]2C2CCCC2)cc1 (racemic) |  | > 10 | > 10 |  |  | 0.089 |  | 3.18 |  |  |  |  |  |  |  |  |  |  |
| N#Cc1ccc(N2N=C3c4ccc(C(=O)O)cc4CC[C@@H]3[C@@H]2C2CCCC2)cc1Cl [PF-03882845] | 86 |  |  | 9.8 | 1.4 |  | 1.7 |  |  |  |  |  |  | <5 | 50 | Active | Active | 18 |
| CC(=O)S[C@@H]1CC2=CC(=O)CC[C@]2(C)[C@H]2CC[C@@]3(C)[C@@H](CC[C@@]34CCC(=O)O4)[C@H]12 [SPIRONOLACTONE] |  | 6.92 |  |  |  |  |  |  |  |  |  | 5.7 |  |  |  |  |  |  |
